# Test results reported in patent US20230382919A1, “OXA- IBOGAINE INSPIRED ANALOGUES FOR TREATMENT OF NEUROLOGICAL AND PSYCHIATRIC DISORDERS” (The Trustees of Columbia University in the City of New York, priority 2021, published 2023).
# Tested on: C57BL/6J mice
# Test: Tail-flick test
# Type: in vivo
# Conditions: Mus musculus, sc, 10-30 mg/kg dose range
# Description: C57BL/6J (8-12 weeks, 22-31 g) were purchased from the Jackson Laboratory (Bar Harbor, ME) and housed 5 mice per cage with food and water available ad libitum. Mice were maintained on a 12-hr light/dark cycle (lights on 7:00-19:00) and all testing was done in the light cycle. Temperature was kept constant at 22±2° C., and relative humidity was maintained at 50±5%. Mice were moved to the testing room 30 minutes before the experiment to allow for acclimation. The body weight of each mouse and base tail-flick value were recorded. Mice were administered a 1 mg/kg s.c. dose of compound solution (volume of injection 220-310 μL based on body weight). After injection mice were returned to the home cage and allowed to rest for 30 minutes. Thirty minutes post injection the tail-flick measurement was taken using thermal stimulation via IR on a Ugo Basile unit set to 52 PSU (ten seconds was used as a maximum latency to prevent tissue damage). Mice were then administered 3 mg/kg s.c. dose, allowed to rest for 30 minutes, followed by another tail-flick measurement. […] Tail-flick latencies for the different doses were expressed as percentage of maximum potential effect (% MPE) by subtracting the experimental value by the base tail flick value then dividing by the difference between the maximum possible latency (10 seconds) and the base tail-flick value and finally multiplying by 100. […]
compound,measurement,value
"c1ccc2c3c([nH]c2c1)C1CCCN(CC3)C1 (stereo not shown) [Compound 61, 1,4,5,6,7,8-hexahydro-2H-3,7-methanoazonino[5,4-b]indole]",ED50,16.5 mg/kg
